Reference: a melting point compilation (Tetko et al.; mined from patent text by program, amines drawn as free bases though some values may be those of a salt)

First: Cc1ccc(NC(=O)Oc2ccc3c(c2)N(Cc2ccccc2)CCC3)cc1
Second: COc1ccc(NC(=O)c2ccccc2NS(=O)(=O)c2ccc(C)cc2)cc1Cl
The melting point of the first is lower: 98 °C for the first, 181 to 182 °C for the second.

First: COc1ccc(/C=C/c2nc3c([nH]2)c(=O)n(C)c(=O)n3C)cc1Br
Second: Cc1cccc(N2CC(=O)N(C)C(=O)N2)c1
The melting point of the first is higher: over 280 °C for the first, 173 to 175 °C for the second.

Compared with `CC(Oc1ccc(Oc2ncc(C(F)(F)F)cc2F)cc1)C(=O)Nc1ccc(C(F)(F)F)cc1` (centres undefined), `Nc1ccc2cccc(Nc3cc(-c4ccc(C(F)(F)F)cc4)ncn3)c2n1` is higher in melting point: 127 to 128 °C for the first, 211 to 213 °C for the second.

First: CCc1nc(NCC(C)O)c2c(n1)c(C)nn2C (centres undefined)
Second: CCOc1nc(NC(CC)CC)c([N+](=O)[O-])c(OCC)n1
The melting point of the first is higher: 116 to 119 °C for the first, 38 to 40 °C for the second.

First: Cc1ccccc1CNC(=O)c1ccc2cnccc2n1
Second: Nc1nc2ccccc2c2c1ncn2CCCCNC(=O)c1ccccc1
The melting point of the first is lower: 120 to 121 °C for the first, 210 to 212 °C for the second.

First: COC(=O)C1=CN(c2ccc(O)cc2)C(C2CC=CCC2)CC1=O (centres undefined)
Second: COC(=O)c1ccc(-c2n[nH]c3ccccc23)o1
The melting point of the first is lower: 155 to 157 °C for the first, 157 to 159 °C for the second.

First: O=C(O)C1(c2ccc(Nc3nc(N4CCC(O)CC4)nc4c3CCC4)cc2)CCC1
Second: O=C(NCCCCN1CCC(c2ccc3c(c2)CCCC3)CC1)c1ccc(NC(=O)c2ccc(Cl)cc2)cc1
The melting point of the first is lower: 165 to 167 °C for the first, 285 °C for the second.

Compared with `CCn1c(=O)c(-c2c(Cl)cccc2Cl)cc2cnc(N)nc21`, `CCN(CC)c1ccc2cc(-c3nc(-c4ccccc4)cs3)c(=O)oc2c1` is lower in melting point: 207 to 209 °C for the first, 127 to 130 °C for the second.

First: CCOC(=O)c1c(OC(C)C)nc2cc(OC)c(OC)cc2c1-c1ccc(OC)c(OC)c1
Second: COc1ccc(S(=O)(=O)N(CC(N)=O)c2ccc(Cl)cc2C(C)c2ccccc2Cl)cc1OC (centres undefined)
The melting point of the first is lower: 142 to 143 °C for the first, 150 °C for the second.

Compared with `CC(C)(C)OC(=O)[C@H]1CC[C@@H](c2ccccc2)N1C(=O)CNC(=O)Nc1cccc(C(=O)OCc2ccccc2)c1` (racemic), `O=C(OCc1ccccc1)C(C(=O)OCc1ccccc1)n1cccc1` is lower in melting point: 75 °C for the first, 48.5 to 49 °C for the second.

First: O=C(c1ccccc1SSc1ccccc1C(=O)N1CCSCC1)N1CCSCC1
Second: Cn1c(-c2ccccc2)cc(O)c(C(=N)c2ccccc2)c1=O
The melting point of the first is lower: 90 to 92 °C for the first, 238 to 240 °C for the second.

First: CCN1CCN(NC(=O)c2cc(Cl)c(N)cc2OC)CC1
Second: COc1ccc(NC(=O)c2ccc(OC)c(N)c2)cc1
The melting point of the first is higher: 177 to 178 °C for the first, 164 to 167 °C for the second.

First: CCOC(=O)c1ncc2[nH]c3ccc(C(=O)OCc4ccccc4)cc3c2c1CC
Second: CCOC(=O)COc1ccc(C=O)cc1NC(=O)c1ccc(OCCCCc2ccccc2)cc1
The melting point of the first is higher: 212 to 215 °C for the first, 109 to 110 °C for the second.

First: OCC1OC(n2c(Cl)nc3cc(Br)ccc32)C(O)C1O (centres undefined)
Second: CN(O)C(=O)NCCc1ccc(Cl)c(Cl)c1
The melting point of the first is higher: 154 to 155 °C for the first, 108 to 109 °C for the second.

First: Cc1c2n(c(=O)c3c(O)cccc13)CCCS2
Second: O=C(O)COc1ccc2c(=O)c3ccccc3oc2c1Cl
The melting point of the first is lower: 110 to 112 °C for the first, 280 to 281 °C for the second.

First: Fc1cccc(COc2ccc(Nc3ncnc4cc(C#Cc5ncccn5)sc34)cc2Cl)c1
Second: Cc1cccc(C)c1NC(=O)c1ccc(CN2C(=O)C3(COc4cc5c(cc43)CCO5)c3ccccc32)cc1 (centres undefined)
The melting point of the first is lower: 236 to 240 °C for the first, over 250 °C for the second.

Compared with `COc1cc(-n2c(I)nnc2I)ccc1C`, `COc1ccc(C=O)c(O)c1Cl` is lower in melting point: 176 °C for the first, 114 to 117 °C for the second.

First: CC(CC(Br)CO)C1CCC2C(O)CCCC12C (centres undefined)
Second: COC(=O)C(CCCCNC(=O)OCc1ccccc1)NC(=O)CCC(C)C1CCC2C3C(O)CC4CC(O)CCC4(C)C3CC(O)C12C (centres undefined)
The melting point of the first is higher: 153 to 154 °C for the first, 80 to 83 °C for the second.

First: CCN1C(=O)Cc2cc3c(cc21)CCO3
Second: CS(=O)(=O)Nc1cc2c(c(C(=O)O)c1)NCCC2
The melting point of the first is lower: 106 to 107 °C for the first, 244 °C for the second.

First: CNC(=S)C(CN1CCOCC1)(OC)c1ccccn1 (centres undefined)
Second: CC(=O)OCCOC(=O)C1=C(C)Nc2nc(N3CCOCC3)nc(N3CCOCC3)c2C1c1cccnc1 (centres undefined)
The melting point of the first is lower: 128 to 132 °C for the first, 170 °C for the second.

First: Cc1cccc(C)c1OC(C)C(=O)OC1CC(O)C=C2C=CC(C)C(CCC3CC(O)CC(=O)O3)C21 (mixture of isomers)
Second: CCOC(=O)C(Cc1ccc(-c2ccc([N+](=O)[O-])cc2)o1)(NC(C)=O)C(=O)OCC
The melting point of the first is lower: 85 to 88 °C for the first, 183 to 185 °C for the second.

Compared with `O=C(CC1CCOCC1)Nc1cccc2nc(N[C@@H]3CCc4ccccc43)ccc12`, `CN(C(=O)CNc1nc(-c2ccc(C(F)(F)F)cc2)nc(-c2ccccc2)c1Cl)C1CC1` is lower in melting point: 211 °C for the first, 188 to 189 °C for the second.

First: Cn1cc(-c2ccccc2)c(=O)c(-c2ccc(Cl)cc2)c1
Second: COc1ccc(P2(=O)c3ccccc3CN2c2ccccc2)cc1 (centres undefined)
The melting point of the first is lower: 142 °C for the first, 190 to 192 °C for the second.

Compared with `O=C(c1ccc(OCC2CO2)cc1)c1cccc(C(=O)c2ccc(OCC3CO3)cc2)c1` (centres undefined), `COc1ccc([C@@H]2Sc3cc(Oc4ccccc4)ccc3NC(=O)[C@@H]2O)cc1` is higher in melting point: 88 to 93 °C for the first, 181 to 183 °C for the second.

Compared with `C=CCOC(=O)C(C#N)=C(SC)SC`, `CCOC(=O)c1ccc(N(C)C)cc1C(=O)OCC` is higher in melting point: 36 to 37.5 °C for the first, 62 to 64 °C for the second.

First: O=C(NN=Cc1ccc([N+](=O)[O-])o1)c1ncn2ccccc12
Second: CCCCOc1cc(C(=O)O)cc(N)c1-c1ccccc1
The melting point of the first is higher: 300 °C for the first, 122 to 124 °C for the second.

First: O=C(C[C@@H](O)C(F)(F)F)N[C@H]1CC[C@H](CCN2CCC(c3cccc4c3CCO4)CC2)CC1
Second: CCCCCCOc1ccc(CCC(=O)OC2CCC3C4CCC5=CC(=O)CCC5C4CCC23C)cc1 (centres undefined)
The melting point of the first is higher: 189 °C for the first, 52 to 53 °C for the second.

Compared with `CC(C)(C)c1cc(CCc2cc(C=O)cc(CCc3cc(C(C)(C)C)cc(C(C)(C)C)c3)c2)cc(C(C)(C)C)c1`, `COC(=O)c1c[nH]c(C=Cc2cnc3nc(NC(=O)C(C)(C)C)nc(O)c3c2)c1` is higher in melting point: 74 to 75 °C for the first, over 260 °C for the second.

Compared with `CC1CCNC(=C2C(=O)CC(C(C)C)CC2=O)N1` (centres undefined), `O=C(O)c1cn(C2CC2)c2nc(N3CCNCC3)c(F)cc2c1=O` is higher in melting point: 71 to 83 °C for the first, 274 to 276 °C for the second.

Compared with `COc1ccc(Br)cc1-c1cc(-c2ccc(Br)cc2)on1`, `COc1ccc2c(c1OC)Oc1cccc3cncc-2c13` is higher in melting point: 127 to 159 °C for the first, 195 to 196 °C for the second.

First: CCC(C#N)(COc1ccc(Cl)cc1)c1cccnc1 (centres undefined)
Second: Cc1ccc(Oc2ccc(C)cc2CC(=O)O)cc1
The melting point of the first is lower: 82.1 °C for the first, 101 to 104 °C for the second.

First: CC(C)Cn1c(=O)n(C)c(=O)c2c(C#CCCCO)n(Cc3cccc4ccccc34)cc21
Second: CN(Cc1ccc(-c2ccc(N3C[C@H](Cn4ccnn4)OC3=O)cc2F)cn1)CC(O)CO (some centres undefined)
The melting point of the first is higher: 176 to 177 °C for the first, 123 °C for the second.

Compared with `COC(=O)c1ccc(C(=O)NS(=O)(=O)c2ccc(CCNC(=O)CC(C)C)cc2)cn1`, `Cc1cc(C(N)=O)ncc1C(c1c(F)ccc(F)c1F)S(=O)(=O)CCCO` (centres undefined) is lower in melting point: 176 to 178 °C for the first, 148 to 150 °C for the second.

First: O=S(=O)(c1nc(-c2ccccc2)c(-c2ccccc2)n1COCc1ccccc1)C(F)(F)C(F)F
Second: CSc1ccc2cc[nH]c2c1
The melting point of the first is higher: 97.5 to 98.5 °C for the first, 91 to 92 °C for the second.

With `COc1ccc(OC)c(CCC(C)(O)CC2CCCCN2)c1` (centres undefined) the melting point was 85 to 90 °C.
